Measurements reported in publication PMC7269503 (Antimicrobial Agents and Chemotherapy, 2020).
In brackets after ≈: the same amount, converted by molar mass. Read-outs that look alike come from different tables or passages of the source.

Assays:
[1] = test system: M. tuberculosis ATCC 27294 (H37Rv); assay: MIC by agar proportion method, standard strain; format: cell-based; conditions: Mycobacterium tuberculosis
[2] = test system: M. tuberculosis ATCC 35812 (Kurono); assay: MIC by agar proportion method, standard strain; format: cell-based; conditions: Mycobacterium tuberculosis, ATCC35812
[3] = test system: M. tuberculosis ATCC 35838 (H37Rv RIF-R); assay: MIC by agar proportion method, standard strain; format: cell-based; conditions: Mycobacterium tuberculosis
[4] = test system: M. tuberculosis ATCC 35822 (H37Rv INH-R); assay: MIC by agar proportion method, standard strain; format: cell-based; conditions: Mycobacterium tuberculosis
[5] = test system: M. tuberculosis ATCC 35837 (H37Rv EMB-R); assay: MIC by agar proportion method, standard strain; format: cell-based; conditions: Mycobacterium tuberculosis
[6] = test system: M. tuberculosis ATCC 35820 (H37Rv SM-R); assay: MIC by agar proportion method, standard strain; format: cell-based; conditions: Mycobacterium tuberculosis
[7] = test system: M. tuberculosis ATCC 35828 (H37Rv PZA-R); assay: MIC by agar proportion method, standard strain; format: cell-based; conditions: Mycobacterium tuberculosis
M. africanum ATCC 25420 = assay: MIC by agar proportion method, standard strain; format: cell-based; conditions: ATCC25420
M. bovis ATCC BAA-935 = assay: microbe, parasite or virus in culture; format: cell-based; conditions: Mycobacterium tuberculosis variant bovis, ATCCBAA935
M. caprae ATCC BAA-824 = assay: MIC by agar proportion method, standard strain; format: cell-based; conditions: ATCCBAA824
M. microti ATCC 11152 = assay: MIC by agar proportion method, standard strain; format: cell-based; conditions: ATCC11152
[8] = test system: M. pinnipedii ATCC BAA-688; assay: MIC by agar proportion method, standard strain; format: cell-based; conditions: ATCCBAA688
M. tuberculosis Kurono = format: in vivo; conditions: in vivo
[9] = biological target: recombinant M. bovis BCG-derived DprE1 (Mycobacterium tuberculosis, UniProt P9WJF1); assay: biochemical
[10] = test system: intracellular M. tuberculosis H37Rv; assay: microbe, parasite or virus in culture; format: cell-based
[11] = test system: intracellular M. tuberculosis Kurono; assay: microbe, parasite or virus in culture; format: cell-based
[12] = ATCC 27294 (H37Rv), agar proportion method, […], read-out: MIC
[13] = ATCC 35812 (Kurono), agar proportion method, read-out: MIC
[14] = […], agar proportion method, read-out: MIC
[15] = M. africanum ATCC 25420, agar proportion method, read-out: MIC
[16] = M. caprae ATCC BAA-824, agar proportion method, read-out: MIC
[17] = M. microti ATCC 11152, agar proportion method, read-out: MIC
[18] = M. pinnipedii ATCC BAA-688, agar proportion method, read-out: MIC

recombinant M. bovis BCG-derived DprE1, sequence (P9WJF1 whole entry): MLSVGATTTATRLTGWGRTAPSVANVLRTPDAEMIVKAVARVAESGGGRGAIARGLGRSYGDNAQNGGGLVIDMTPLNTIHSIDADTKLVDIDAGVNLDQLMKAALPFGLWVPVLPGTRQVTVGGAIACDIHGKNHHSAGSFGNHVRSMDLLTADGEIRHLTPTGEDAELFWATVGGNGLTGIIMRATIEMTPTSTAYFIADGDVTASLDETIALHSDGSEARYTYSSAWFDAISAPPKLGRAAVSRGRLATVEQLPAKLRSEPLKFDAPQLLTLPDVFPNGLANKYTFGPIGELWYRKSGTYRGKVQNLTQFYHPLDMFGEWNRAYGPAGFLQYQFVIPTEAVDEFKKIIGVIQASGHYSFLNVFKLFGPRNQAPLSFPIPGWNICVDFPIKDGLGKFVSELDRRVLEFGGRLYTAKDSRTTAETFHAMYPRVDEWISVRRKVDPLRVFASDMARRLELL

COc1nc2ccc(Br)cc2cc1[C@@H](c1ccccc1)[C@@](O)(CCN(C)C)c1cccc2ccccc12 [BDQ, bedaquiline]
MIC [1, 12]: 0.063 µg/mL (≈ 0.113 µM)
MIC [2, 13]: 0.063 µg/mL (≈ 0.113 µM)
MIC [3, 14]: 0.063 µg/mL (≈ 0.113 µM)
MIC [4, 14]: 0.063 µg/mL (≈ 0.113 µM)
MIC [5, 14]: 0.063 µg/mL (≈ 0.113 µM)
MIC [6, 14]: 0.063 µg/mL (≈ 0.113 µM)
MIC [7, 14]: 0.13 µg/mL (≈ 0.234 µM)
MIC (M. africanum ATCC 25420; [15]): 0.25 µg/mL (≈ 0.45 µM)
MIC (M. bovis ATCC BAA-935): 0.13 µg/mL (≈ 0.234 µM)
MIC (M. caprae ATCC BAA-824; [16]): 0.13 µg/mL (≈ 0.234 µM)
MIC (M. microti ATCC 11152; [17]): 0.063 µg/mL (≈ 0.113 µM)
MIC [8, 18]: 0.13 µg/mL (≈ 0.234 µM)
lung CFU compared to the vehicle group, single agent (M. tuberculosis Kurono): significant decrease of lung CFU

C[C@H]1COC2(CCN(c3nc(=O)c4cc(C(F)(F)F)cc([N+](=O)[O-])c4s3)CC2)O1 [BTZ043]
IC50 [9]: 403 nM

C[C@]1(COc2ccc(N3CCC(Oc4ccc(OC(F)(F)F)cc4)CC3)cc2)Cn2cc([N+](=O)[O-])nc2O1 [DMD, delamanid]
MIC [1, 12]: 0.004 µg/mL (≈ 0.00748 µM)
MIC [2, 13]: 0.004 µg/mL (≈ 0.00748 µM)
MIC [3, 14]: 0.004 µg/mL (≈ 0.00748 µM)
MIC [4, 14]: 0.004 µg/mL (≈ 0.00748 µM)
MIC [5, 14]: 0.004 µg/mL (≈ 0.00748 µM)
MIC [6, 14]: 0.004 µg/mL (≈ 0.00748 µM)
MIC [7, 14]: 0.004 µg/mL (≈ 0.00748 µM)
MIC (M. africanum ATCC 25420; [15]): 0.001 µg/mL (≈ 0.00187 µM)
MIC (M. bovis ATCC BAA-935): 0.004 µg/mL (≈ 0.00748 µM)
MIC (M. caprae ATCC BAA-824; [16]): 0.002 µg/mL (≈ 0.00374 µM)
MIC (M. microti ATCC 11152; [17]): 0.002 µg/mL (≈ 0.00374 µM)
MIC [8, 18]: 0.002 µg/mL (≈ 0.00374 µM)
lung CFU compared to the vehicle group, single agent (M. tuberculosis Kurono): significant decrease of lung CFU

NNC(=O)c1ccncc1 [INH, isoniazid]
IC50 [9]: > 10000 nM

C[C@H]1COc2c(N3CCN(C)CC3)c(F)cc3c(=O)c(C(=O)O)cn1c23 [LVX, levofloxacin]
MIC [1, 12]: 0.5 µg/mL (≈ 1.38 µM)
MIC [2, 13]: 0.5 µg/mL (≈ 1.38 µM)
MIC [3, 14]: 0.5 µg/mL (≈ 1.38 µM)
MIC [4, 14]: 0.5 µg/mL (≈ 1.38 µM)
MIC [5, 14]: 0.5 µg/mL (≈ 1.38 µM)
MIC [6, 14]: 0.5 µg/mL (≈ 1.38 µM)
MIC [7, 14]: 0.5 µg/mL (≈ 1.38 µM)
MIC (M. africanum ATCC 25420; [15]): 0.25 µg/mL (≈ 0.692 µM)
MIC (M. bovis ATCC BAA-935): 0.25 µg/mL (≈ 0.692 µM)
MIC (M. caprae ATCC BAA-824; [16]): 0.25 µg/mL (≈ 0.692 µM)
MIC (M. microti ATCC 11152; [17]): 0.25 µg/mL (≈ 0.692 µM)
MIC [8, 18]: 0.25 µg/mL (≈ 0.692 µM)
lung CFU compared to the vehicle group, single agent (M. tuberculosis Kurono): significant decrease of lung CFU

CC(=O)NC[C@H]1CN(c2ccc(N3CCOCC3)c(F)c2)C(=O)O1 [LZD, linezolid]
MIC [1]: 1 µg/mL (≈ 2.96 µM)
MIC [2]: 1 µg/mL (≈ 2.96 µM)
MIC [3]: 0.5 µg/mL (≈ 1.48 µM)
MIC [4]: 1 µg/mL (≈ 2.96 µM)
MIC [5]: 0.5 µg/mL (≈ 1.48 µM)
MIC [6]: 0.5 µg/mL (≈ 1.48 µM)
MIC [7]: 1 µg/mL (≈ 2.96 µM)
MIC (M. africanum ATCC 25420): 0.5 µg/mL (≈ 1.48 µM)
MIC (M. bovis ATCC BAA-935): 0.5 µg/mL (≈ 1.48 µM)
MIC (M. caprae ATCC BAA-824): 0.25 µg/mL (≈ 0.741 µM)
MIC (M. microti ATCC 11152): 0.5 µg/mL (≈ 1.48 µM)
MIC [8]: 1 µg/mL (≈ 2.96 µM)

COc1c(N2C[C@@H]3CCCN[C@@H]3C2)c(F)cc2c(=O)c(C(=O)O)cn(C3CC3)c12 [MXF, moxifloxacin]
MIC [1, 12]: 0.5 µg/mL (≈ 1.25 µM)
MIC [2, 13]: 0.13 µg/mL (≈ 0.324 µM)
MIC [3, 14]: 0.25 µg/mL (≈ 0.623 µM)
MIC [4, 14]: 0.25 µg/mL (≈ 0.623 µM)
MIC [5, 14]: 0.25 µg/mL (≈ 0.623 µM)
MIC [6, 14]: 0.5 µg/mL (≈ 1.25 µM)
MIC [7, 14]: 0.5 µg/mL (≈ 1.25 µM)
MIC (M. africanum ATCC 25420; [15]): 0.25 µg/mL (≈ 0.623 µM)
MIC (M. bovis ATCC BAA-935): 0.13 µg/mL (≈ 0.324 µM)
MIC (M. caprae ATCC BAA-824; [16]): 0.063 µg/mL (≈ 0.157 µM)
MIC (M. microti ATCC 11152; [17]): 0.063 µg/mL (≈ 0.157 µM)
MIC [8, 18]: 0.25 µg/mL (≈ 0.623 µM)

CO[C@H]1/C=C/O[C@@]2(C)Oc3c(C)c(O)c4c(O)c(c(/C=N/N5CCN(C)CC5)c(O)c4c3C2=O)NC(=O)/C(C)=C\C=C\[C@H](C)[C@H](O)[C@@H](C)[C@@H](O)[C@@H](C)[C@H](OC(C)=O)[C@@H]1C [RIF, rifampin]
MIC [1]: 0.25 µg/mL (≈ 0.304 µM)
MIC [2]: 0.25 µg/mL (≈ 0.304 µM)
MIC [3]: > 16 µg/mL
MIC [4]: 0.5 µg/mL (≈ 0.608 µM)
MIC [5]: 0.25 µg/mL (≈ 0.304 µM)
MIC [6]: 0.25 µg/mL (≈ 0.304 µM)
MIC [7]: 1 µg/mL (≈ 1.22 µM)
MIC (M. africanum ATCC 25420): 0.25 µg/mL (≈ 0.304 µM)
MIC (M. bovis ATCC BAA-935): 0.063 µg/mL (≈ 0.0766 µM)
MIC (M. caprae ATCC BAA-824): 0.13 µg/mL (≈ 0.158 µM)
MIC (M. microti ATCC 11152): 0.13 µg/mL (≈ 0.158 µM)
MIC [8]: 0.5 µg/mL (≈ 0.608 µM)
bactericidal activity against intracellular bacilli [10]: killed the intracellular bacilli
IC90 ([10]; Mycobacterium tuberculosis, H37RV, THP-1, read-out: 90% inhibitory concentration (IC90)): 1.15 µg/mL (≈ 1.4 µM)
bactericidal activity against intracellular bacilli [11]: killed the intracellular bacilli
IC90 ([11]; Mycobacterium tuberculosis, THP-1, read-out: 90% inhibitory concentration (IC90)): 0.565 µg/mL (≈ 0.686 µM)

[H]/N=C(/N)N[C@H]1[C@H](O)[C@@H](O)[C@H](O[C@@H]2O[C@@H](C)[C@](O)(C=O)[C@H]2O[C@@H]2O[C@@H](CO)[C@H](O)[C@@H](O)[C@@H]2NC)[C@@H](N/C(N)=N\[H])[C@@H]1O [STR, streptomycin]
bactericidal activity against intracellular bacilli ([10]; H37Rv in THP-1-derived macrophage-like cells, 3 days): no bactericidal activity
bactericidal activity against intracellular bacilli ([11]; Kurono in THP-1-derived macrophage-like cells, 3 days): no bactericidal activity
